“Also recorded” adds a separate entry of the source.
Legend:
[1] = system: ANV-1 breast cancer cells with CSC-like property; experiment: MTS viability assay on ANV-1 breast cancer cells; assay type: cell-based, mouse
Method: The % of viabilities of treated cells (Y-axis) were calculated with respect to untreated cells [* denotes p<0.001 between DX-ESC8+NRP-1 group with other groups]
Cells were treated with a) DX-nutilin+NRP-1 ShRNA plasmid, b) DX-nutilin+control plasmid, c) DX+NRP-1 ShRNA plasmid, d) nutilin as free drug. The treatments were done in two different conditions, a) continuous treatment for 48 h by the respective formulations with […] effective nutilin concentration; b) treatment for only 4 h by respective formulations with […] effective nutilin concentrations. The % viabilities of treated cells (Y-axis) were calculated with respect to untreated cells.
(§1) Cancer cells (ANV-1, PANC-1, ASPC-1) were inoculated at a concentration of 5000 cells/well of 96-well cell culture plates in 10% Fetal Calf serum (FCS) containing DMEM media. Following an incubation of minimum of 16 h at 37° C., the cells were treated in triplicate with respective lipoplexes (DX-ESC8, DO-ESC8, DX,) pre-complexed with 0.3 μg of NRP-1 or control plasmid amounts per well as discussed in Example 1. The cells were also treated with naked liposomes with or without ESC8 or free drug, ESC8, in a final volume of 300 μl (volume made up with 10% FCS containing DMEM media) continuously for 48 h (mostly) or 72 h. […] Thereafter cells were assayed for viability using MTS assay kit (Promega) following manufacturer's protocol.
For cells treated with DX-nutilin, the test solutions were: a) DX-nutilin pre-complexed with 0.3 µg of NRP-1 Sh-RNA plasmid, b) […] pre-complexed with 0.3 µg control plasmid, c) DX liposome pre-complexed with 0.3 µg NRP-1 Sh-RNA plasmid, d) only […] addition.

[2] = system: PANC-1 pancreatic cancer cells; experiment: MTS viability assay on PANC-1 pancreatic cancer cells; assay type: cell-based, human; details: 48 h, ESC8 5 or 2.5 μM
Method: (§2) Cells were treated for 48 h with a) DX-ESC8+NRP-1 ShRNA plasmid, b) DX-ESC8+control plasmid, c) DO-ESC8+NRP-1, d) DO-ESC8+control plasmid e) ESC8, as free drug at the drug concentrations of 5 or 2.5 μM in either naked or respective formulated state. The % of viabilities of treated cells (Y-axis) were calculated with respect to untreated cells [* denotes p<0.01 between DX-ESC8 lipoplex groups with other groups].
as §1

[3] = system: ASPC-1 pancreatic cancer cells; experiment: MTS viability assay on ASPC-1 pancreatic cancer cells; assay type: cell-based, human; details: 48 h or 72 h continuous treatment, ESC8 5 μM
Method: as §2, with “DO-ESC8+NRP-1 ShRNA plasmid,” for “DO-ESC8+NRP-1,”, “DX+NRP-1 ShRNA plasmid, followed by ESC8 treatment” for “DO-ESC8+control plasmid”, “concentration” for “concentrations”, “5” for “5 or 2.5”
Cells were treated for 72 h with a) DX-ESC8+NRP-1 ShRNA plasmid, b) DX-ESC8+control plasmid, c) DX+NRP-1 ShRNA plasmid, d) DO+NRP-1 ShRNA plasmid e) ESC8, as free drug at the drug concentration of 5 μM in either naked or respective formulated state. For groups c and d the liposome concentrations of DX or DO were equivalent to the corresponding liposome concentration in DX-ESC8 containing 5 μM ESC8. The % of viabilities of treated cells (Y-axis) were calculated with respect to untreated cells [* denotes p<0.01 between DX-ESC8 lipoplex groups or DX+NRP-1 ShRNA plasmid group with other groups].
Cancer cells (ANV-1, PANC-1, ASPC-1) were inoculated at a concentration of 5000 cells/well of 96-well cell culture plates in 10% Fetal Calf serum (FCS) containing DMEM media. […]

CCCCCCCC[N+](C)(CCCCCCCC)CCC[C@]1(O)CC[C@H]2[C@@H]3CCc4cc(O)ccc4[C@H]3CC[C@@]21C [ESC8, 17-α-[3-(N,N-dioctyl,N-methyl-amino)-propan-1-yl]-17β-estradiol]
anticancer effect towards ANV-1 breast cancer cells ([1]; 48 h, ESC8 10 or 5 μM naked or formulated (FIG. 1)): very limited effect; also recorded: least anticancer effect
viability of ANV-1 cells ([1]; 48 h treatment, drug concentration 10 or 5 μM, with respect to untreated cells (FIG. 1)): 60-70%
ESC8 free drug concentration needed to get 95-100% of ANV-1 cell killing ([1]; 72 h treatment): at least 50 μM
visual effect on ANV-1 cells ([1]; shorter treatment time): no visual effect
anti-cancer effect on PANC-1 cells [2]: no anticancer effect; also recorded: no toxicity
killing / anticancer effect on ASPC-1 cells [3]: no anticancer effect; also recorded: least toxic effect

Source: patent US9861653B2, “Synergistic anti-cancer composition and a process for the preparation thereof” (Council of Scientific and Industrial Research, priority 2012, dated 2018)
